≈ marks a conversion by molar mass, not a printed value.
Columns and labels:
Carbonic anhydrase 4 = biological target: T1, Carbonic anhydrase 4 (Bos taurus, UniProt Q95323)
T1 sequence (Q95323 whole entry): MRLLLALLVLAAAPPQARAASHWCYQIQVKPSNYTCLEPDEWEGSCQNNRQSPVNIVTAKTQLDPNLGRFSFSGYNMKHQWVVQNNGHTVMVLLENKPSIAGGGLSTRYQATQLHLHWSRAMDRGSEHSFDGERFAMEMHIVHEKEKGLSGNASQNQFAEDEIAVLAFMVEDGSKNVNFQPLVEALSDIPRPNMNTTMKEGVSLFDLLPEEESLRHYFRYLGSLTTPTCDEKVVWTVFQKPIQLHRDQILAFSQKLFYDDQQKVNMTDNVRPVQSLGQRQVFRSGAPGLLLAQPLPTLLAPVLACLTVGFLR
Description: Inhibition of bovine Carbonic anhydrase IV determined by esterase method

Carbonic anhydrase 1 = Carbonic anhydrase 1 (Homo sapiens, UniProt P00915)
Chain of Carbonic anhydrase 1 (P00915 whole entry): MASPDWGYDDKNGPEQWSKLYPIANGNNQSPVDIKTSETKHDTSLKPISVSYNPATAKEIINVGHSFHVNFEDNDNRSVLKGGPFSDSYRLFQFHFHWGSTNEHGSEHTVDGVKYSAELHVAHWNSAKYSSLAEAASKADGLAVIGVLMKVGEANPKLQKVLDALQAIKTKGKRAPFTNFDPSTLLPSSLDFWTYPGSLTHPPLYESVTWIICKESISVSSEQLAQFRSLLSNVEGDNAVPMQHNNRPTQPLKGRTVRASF
Description: Inhibition of human cloned Carbonic anhydrase I

Carbonic anhydrase 2 = Carbonic anhydrase 2 (Homo sapiens, UniProt P00918)
Description: Inhibition of human cloned Carbonic anhydrase II

[1] = octanol/water
Description: Partition coefficient (logD) (chloroform/buffer)

Oryctolagus cuniculus [2] = organism: Oryctolagus cuniculus
Description: In vitro transcorneal accession rate (intact cornea) of compound was determined

Oryctolagus cuniculus [3] = organism: Oryctolagus cuniculus; remark: listed apart in the source
Description: Reduction of intraocular pressure in normotensive rabbits after treatment with 50 uL of compound (as HCl salt) at pH 5.5 in eye after 0 min from administration, to that of controls

Oryctolagus cuniculus [4] = organism: Oryctolagus cuniculus; remark: listed apart in the source
Description: Reduction of intraocular pressure in normotensive rabbits after treatment with 50 uL of compound (as HCl salt) at pH 5.5 in eye after 240 min from administration, to that of controls

Oryctolagus cuniculus [5] = organism: Oryctolagus cuniculus; remark: listed apart in the source
Description: Reduction of intraocular pressure in normotensive rabbits after treatment with 50 uL of compound (as HCl salt) at pH 5.5 in eye after 90 min from administration, to that of controls

Oryctolagus cuniculus [6] = organism: Oryctolagus cuniculus; remark: listed apart in the source
Description: In vitro transcorneal accession rate (without epithelium) of compound was determined

physchem = details: buffer, pH 7.4
Description: Solubility (hydrochloride salt) in buffer at pH 7.4 and at 25 degree celsius.

Oryctolagus cuniculus [7] = organism: Oryctolagus cuniculus; remark: listed apart in the source
Description: Reduction of intraocular pressure in normotensive rabbits after treatment with 50 uL of compound (as HCl salt) at pH 5.5 in eye after 30 min from administration, to that of controls

Oryctolagus cuniculus [8] = organism: Oryctolagus cuniculus; remark: listed apart in the source
Description: Reduction of intraocular pressure in normotensive rabbits after treatment with 50 uL of compound (as HCl salt) at pH 5.5 in eye after 60 min from administration, to that of controls

NS(=O)(=O)c1ccccc1NCc1cc(=O)oc2cc(Cl)ccc12
Ki (Carbonic anhydrase 4): 0.3 µM | Ki (Carbonic anhydrase 1): 21.5 µM | Ki (Carbonic anhydrase 2): 0.27 µM

Cn1nc(S(N)(=O)=O)s/c1=N\S(=O)(=O)c1ccc(NCc2cc(=O)oc3cc(Cl)ccc23)cc1
Ki (Carbonic anhydrase 4): 0.0006 µM | Ki (Carbonic anhydrase 1): 0.001 µM | Ki (Carbonic anhydrase 2): 0.0005 µM

NS(=O)(=O)c1ccc(NCc2cc(=O)oc3cc(Cl)ccc23)c(Cl)c1
Ki (Carbonic anhydrase 4): 0.096 µM | Ki (Carbonic anhydrase 1): 0.52 µM | Ki (Carbonic anhydrase 2): 0.045 µM

NS(=O)(=O)c1nnc(NC(=O)CCNCc2cc(=O)oc3cc(Cl)ccc23)s1
logD [1]: 0.683 | Kin (Oryctolagus cuniculus [2]): 3300 h⁻¹ | Delta IOP (Oryctolagus cuniculus [3]): 0 mmHg | Ki (Carbonic anhydrase 4): 0.016 µM | Delta IOP (Oryctolagus cuniculus [4]): 3.4 mmHg | Delta IOP (Oryctolagus cuniculus [5]): 7.2 mmHg | Ki (Carbonic anhydrase 1): 0.012 µM | Kin (Oryctolagus cuniculus [6]): 8400 h⁻¹ | solubility (physchem): 62 mM (≈ 27.5 mg/mL) | Delta IOP (Oryctolagus cuniculus [7]): 5.1 mmHg | Ki (Carbonic anhydrase 2): 0.002 µM | Delta IOP (Oryctolagus cuniculus [8]): 8.3 mmHg

NS(=O)(=O)c1nnc(NN2C(=O)c3cccnc3C2=O)s1
logD [1]: 0.315 | Kin (Oryctolagus cuniculus [2]): 2500 h⁻¹ | Ki (Carbonic anhydrase 4): 0.018 µM | Ki (Carbonic anhydrase 1): 0.039 µM | Kin (Oryctolagus cuniculus [6]): 7600 h⁻¹ | solubility (physchem): 72 mM (≈ 23.5 mg/mL) | Ki (Carbonic anhydrase 2): 0.008 µM

NS(=O)(=O)c1cc(S(N)(=O)=O)c(NCc2cc(=O)oc3cc(Cl)ccc23)cc1Cl
Ki (Carbonic anhydrase 4): 0.05 µM | Ki (Carbonic anhydrase 1): 0.4 µM | Ki (Carbonic anhydrase 2): 0.012 µM

NS(=O)(=O)c1nnc(NS(=O)(=O)c2ccc(NCc3cc(=O)oc4cc(Cl)ccc34)cc2)s1
Ki (Carbonic anhydrase 4): 0.004 µM | Ki (Carbonic anhydrase 1): 0.005 µM | Ki (Carbonic anhydrase 2): 0.002 µM

Cn1nc(S(N)(=O)=O)s/c1=N\Cc1cc(=O)oc2cc(Cl)ccc12
Ki (Carbonic anhydrase 4): 0.016 µM | Ki (Carbonic anhydrase 1): 0.029 µM | Ki (Carbonic anhydrase 2): 0.006 µM | Delta IOP (Oryctolagus cuniculus [8]): 6 mmHg

NS(=O)(=O)c1nnc(NCc2cc(=O)oc3cc(Cl)ccc23)s1
logD [1]: 0.558 | Kin (Oryctolagus cuniculus [2]): 2800 h⁻¹ | Delta IOP (Oryctolagus cuniculus [3]): 0 mmHg | Ki (Carbonic anhydrase 4): 0.015 µM | Delta IOP (Oryctolagus cuniculus [4]): 1.5 mmHg | Delta IOP (Oryctolagus cuniculus [5]): 4.9 mmHg | Ki (Carbonic anhydrase 1): 0.036 µM | Kin (Oryctolagus cuniculus [6]): 6500 h⁻¹ | solubility (physchem): 54 mM (≈ 20.1 mg/mL) | Delta IOP (Oryctolagus cuniculus [7]): 3.9 mmHg | Ki (Carbonic anhydrase 2): 0.007 µM | Delta IOP (Oryctolagus cuniculus [8]): 5.8 mmHg

NS(=O)(=O)c1cccc(NS(=O)(=O)c2ccc(NCc3cc(=O)oc4cc(Cl)ccc34)cc2)c1
Ki (Carbonic anhydrase 4): 0.03 µM | Ki (Carbonic anhydrase 1): 0.036 µM | Ki (Carbonic anhydrase 2): 0.006 µM

NS(=O)(=O)c1ccc(CNCc2cc(=O)oc3cc(Cl)ccc23)cc1
Ki (Carbonic anhydrase 4): 0.24 µM | Ki (Carbonic anhydrase 1): 1.06 µM | Ki (Carbonic anhydrase 2): 0.145 µM

NS(=O)(=O)c1ccc(NNCc2cc(=O)oc3cc(Cl)ccc23)cc1
Ki (Carbonic anhydrase 4): 0.32 µM | Ki (Carbonic anhydrase 1): 21.8 µM | Ki (Carbonic anhydrase 2): 0.275 µM

NS(=O)(=O)c1ccc(NS(=O)(=O)c2ccc(NCc3cc(=O)oc4cc(Cl)ccc34)cc2)cc1
Ki (Carbonic anhydrase 4): 0.014 µM | Ki (Carbonic anhydrase 1): 0.033 µM | Ki (Carbonic anhydrase 2): 0.003 µM

NS(=O)(=O)c1ccc(NCc2cc(=O)oc3cc(Cl)ccc23)c(Br)c1
Ki (Carbonic anhydrase 4): 0.078 µM | Ki (Carbonic anhydrase 1): 0.6 µM | Ki (Carbonic anhydrase 2): 0.033 µM

NS(=O)(=O)c1ccc(NCc2cc(=O)oc3cc(Cl)ccc23)c(I)c1
Ki (Carbonic anhydrase 4): 0.07 µM | Ki (Carbonic anhydrase 1): 0.61 µM | Ki (Carbonic anhydrase 2): 0.036 µM

CCN(Cc1cc(=O)oc2cc(Cl)ccc12)C1CC(C)S(=O)(=O)c2sc(S(N)(=O)=O)cc21 (stereo not given)
logD [1]: 1.762 | Kin (Oryctolagus cuniculus [2]): 2100 h⁻¹ | Delta IOP (Oryctolagus cuniculus [3]): 0 mmHg | Ki (Carbonic anhydrase 4): 0.025 µM | Delta IOP (Oryctolagus cuniculus [4]): 0 mmHg | Delta IOP (Oryctolagus cuniculus [5]): 1.6 mmHg | Ki (Carbonic anhydrase 1): 18 µM | Kin (Oryctolagus cuniculus [6]): 5900 h⁻¹ | solubility (physchem): 41 mM (≈ 21.2 mg/mL) | Delta IOP (Oryctolagus cuniculus [7]): 1.9 mmHg | Ki (Carbonic anhydrase 2): 0.008 µM | Delta IOP (Oryctolagus cuniculus [8]): 3.7 mmHg

NS(=O)(=O)c1ccc(NCc2cc(=O)oc3cc(Cl)ccc23)cc1
Ki (Carbonic anhydrase 4): 0.17 µM | Ki (Carbonic anhydrase 1): 15 µM | Ki (Carbonic anhydrase 2): 0.125 µM

NS(=O)(=O)c1ccc(CCNCc2cc(=O)oc3cc(Cl)ccc23)cc1
Ki (Carbonic anhydrase 4): 0.225 µM | Ki (Carbonic anhydrase 1): 0.95 µM | Ki (Carbonic anhydrase 2): 0.12 µM

NS(=O)(=O)c1ccc(NCc2cc(=O)oc3cc(Cl)ccc23)c(F)c1
Ki (Carbonic anhydrase 4): 0.11 µM | Ki (Carbonic anhydrase 1): 0.54 µM | Ki (Carbonic anhydrase 2): 0.03 µM

NS(=O)(=O)c1cccc(NCc2cc(=O)oc3cc(Cl)ccc23)c1
Ki (Carbonic anhydrase 4): 0.28 µM | Ki (Carbonic anhydrase 1): 20 µM | Ki (Carbonic anhydrase 2): 0.25 µM

NS(=O)(=O)c1cc(S(N)(=O)=O)c(NCc2cc(=O)oc3cc(Cl)ccc23)c(Cl)c1Cl
Ki (Carbonic anhydrase 4): 0.049 µM | Ki (Carbonic anhydrase 1): 0.5 µM | Ki (Carbonic anhydrase 2): 0.018 µM

— ChEMBL document CHEMBL1133155, “Carbonic anhydrase inhibitors: topical sulfonamide antiglaucoma agents incorporating secondary amine moieties” (Bioorg Med Chem Lett, 2000)
